Read-outs that look alike come from different tables or passages of the source.
Columns and labels:
[1] = biological target: T1, levetiracetam binding site (LBS) (Rattus norvegicus, UniProt Q02563); details: cited from earlier work; for displacement of LEV binding: rat brain LBS
T1 construct: host or cells: crude rat brain membranes (Noyer et al. 1995; Gillard et al. 2003)

LBS = biological target: T2, LBS (Rattus norvegicus, UniProt Q02563); assay: autoradiography of [3H]ucb 30889 binding on rat brain sections
T2 construct: from tissue; host or cells: rat brain (crude membranes; 25 µm sections for autoradiography)
Procedure: (§1) Binding experiments were conducted on crude rat brain membranes at 4° C. as described in Noyer et al. (Euro. J. Pharmacol. 286: 137-146 (1995)). Incubation time for equilibrium studies was 120 min. For kinetic and competition studies, [^3H]ucb 30889 (30 Ci/mmol) was used at a concentration of 1.3 nM in 0.5 ml of a Tris-HCl (pH 7.4) buffer containing 2 mM Mg^2+. Localization of the LBS in brain substructures was assessed by autoradiography on 25 μm thick slices incubated under similar conditions. Slides were then washed twice for 10 min at 4° C. in 50 mM Tris-HCl (pH 7.4) containing 0.5% BSA, dried and exposed for 3 weeks to [^3H]Hyperfilm at −20° C. Non-specific binding (NSB) was determined by the inclusion of 1 mM LEV during the incubation period.

[2] = tested on: LBS in peripheral tissues; details: heart, kidneys, spleen, pancreas, adrenals, lungs and liver; radiolabel studies; cited from earlier work
[3] = tested on: audiogenic-susceptible mouse; details: cited from earlier work
COS-7 = assay: [3H]ucb 30889 binding in cell types
Procedure: To identify and characterize the LBS in situ, [^3H]ucb 30889 was used to map the LBS within the brain and to study both its cellular and subcellular distribution. For rat brain autoradiography, 25 μm slices were incubated with 1.3 nM [^3H]ucb 30889 for 120 min at 4° C. in 50 mM Tris-HCl buffer (pH 7.4). Binding assays with rat brain membranes and various neuronal cell lines were performed under similar conditions. […] For photolabeling, membranes were incubated with 40 nM [^3H]ucb 30889 for 120 min at 4° C. in the same buffer, followed by irradiation with UV-light for 30 min (Fuks et al., Eur. J. Pharmacol. 478:11-19 (2003)).
In addition, a PC12 cell line subclone, PC12a, which is low in LBS, was used to establish a pool of PC 12 cells expressing hSV2A under stable antibiotic selection.

[4] = biological target: T1, levetiracetam binding site (LBS); assay: [3H]ucb 30889 binding on crude rat brain membranes (kinetics, saturation, competition)
hSV2B = biological target: T3, hSV2B (Homo sapiens, UniProt Q7L1I2); assay: [3H]ucb 30889 binding to hSV2B in transient COS-7 system
T3 construct: expressed in transfected cells; host or cells: COS-7, transient

hSV2C = biological target: T4, hSV2C (Homo sapiens, UniProt Q496J9); assay: [3H]ucb 30889 binding to hSV2C in transient COS-7 system
T4 construct: expressed in transfected cells; host or cells: COS-7, transient
T4 sequence (Q496J9 1-727): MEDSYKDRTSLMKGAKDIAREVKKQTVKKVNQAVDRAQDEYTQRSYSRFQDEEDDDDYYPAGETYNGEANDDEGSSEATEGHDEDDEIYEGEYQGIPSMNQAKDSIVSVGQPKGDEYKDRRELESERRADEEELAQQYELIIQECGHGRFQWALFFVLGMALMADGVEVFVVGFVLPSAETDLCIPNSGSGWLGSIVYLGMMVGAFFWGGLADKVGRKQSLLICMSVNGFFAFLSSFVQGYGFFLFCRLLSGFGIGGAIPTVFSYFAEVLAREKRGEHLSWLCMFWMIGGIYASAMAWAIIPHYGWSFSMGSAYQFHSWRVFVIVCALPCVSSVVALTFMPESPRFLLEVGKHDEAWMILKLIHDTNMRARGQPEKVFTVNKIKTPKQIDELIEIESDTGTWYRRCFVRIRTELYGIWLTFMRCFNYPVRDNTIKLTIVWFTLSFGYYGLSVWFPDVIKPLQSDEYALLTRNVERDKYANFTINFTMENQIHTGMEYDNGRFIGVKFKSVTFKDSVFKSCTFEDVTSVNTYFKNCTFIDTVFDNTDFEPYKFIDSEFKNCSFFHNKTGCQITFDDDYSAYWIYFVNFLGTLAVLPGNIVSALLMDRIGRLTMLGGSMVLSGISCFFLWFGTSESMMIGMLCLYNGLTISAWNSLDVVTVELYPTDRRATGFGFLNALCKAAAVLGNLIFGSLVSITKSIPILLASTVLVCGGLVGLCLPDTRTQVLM

[5] = tested on: LBS in peripheral tissues; assay: radioligand binding in peripheral tissues; design: species or system rat; details: 150 μg of protein/assay, 1.3 nM radioligand
Procedure: as §1
The limit of detection under the experimental conditions (150 μg of protein/assay and 1.3 nM of radioligand) was a Bmax of 200 fmol/mg protein.

soluble SV2A = biological target: T5, soluble SV2A (Rattus norvegicus, UniProt Q02563); assay: binding to soluble SV2A (n-dodecyl-β-D-maltoside solubilized rat brain membranes)
T5 construct: the soluble protein maintains its native structural conformation in n-dodecyl-β-D-maltoside; from tissue; host or cells: rat brain membranes, detergent supernatant (100,000 g)
Procedure: The rat brain membranes were diluted in a solubilization buffer (Tris-HCl 20 mM pH 7.4, 0.25 M sucrose, protease inhibitors Complete Roche) containing n-dodecyl-β-D-maltoside 15 mM and incubated for two hours at 4° C. Subsequently, the solution was centrifuged at 4° C. for one hour at 100,000 g. […] The supernatants were incubated with [^3H]ucb 30889 as described.

hSV2A = biological target: T6, hSV2A (Homo sapiens, UniProt Q7L0J3); assay: [3H]ucb 30889 binding to hSV2A transiently expressed in COS-7 cells; details: displacement of [3H]ucb 30889, COS-7 cells
T6 construct: expressed in transfected cells; host or cells: COS-7, transient, Lipofectamine 2000, pDEST 12.2 Gateway vector (CMV promoter)
T6 sequence (Q7L0J3 whole entry): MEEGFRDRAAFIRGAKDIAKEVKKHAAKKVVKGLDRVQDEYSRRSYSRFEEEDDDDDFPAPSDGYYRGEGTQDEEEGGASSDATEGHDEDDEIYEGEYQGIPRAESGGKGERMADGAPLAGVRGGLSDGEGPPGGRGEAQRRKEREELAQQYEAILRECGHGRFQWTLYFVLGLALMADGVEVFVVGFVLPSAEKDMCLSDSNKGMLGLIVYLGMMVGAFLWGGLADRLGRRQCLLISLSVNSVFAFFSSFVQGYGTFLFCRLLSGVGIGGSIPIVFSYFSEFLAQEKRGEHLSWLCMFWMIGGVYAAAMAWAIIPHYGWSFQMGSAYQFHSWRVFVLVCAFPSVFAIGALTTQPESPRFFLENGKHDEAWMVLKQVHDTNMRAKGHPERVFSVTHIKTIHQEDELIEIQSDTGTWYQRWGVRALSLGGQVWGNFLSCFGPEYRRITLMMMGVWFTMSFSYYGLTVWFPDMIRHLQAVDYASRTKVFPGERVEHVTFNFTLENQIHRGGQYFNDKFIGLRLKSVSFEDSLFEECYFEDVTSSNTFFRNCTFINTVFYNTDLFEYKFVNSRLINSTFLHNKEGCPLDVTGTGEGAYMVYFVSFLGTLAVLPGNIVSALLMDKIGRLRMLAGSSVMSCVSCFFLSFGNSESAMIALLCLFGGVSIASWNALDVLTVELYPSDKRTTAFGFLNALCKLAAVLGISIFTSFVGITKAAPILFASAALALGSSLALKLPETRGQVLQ

T1 sequence (Q02563 whole entry): as the sequence (Q7L0J3 whole entry) above, with D53E, S62A, T71A, E144D, A154T, G440S, S482A, I572V, M634L counted along it
T3 sequence (Q7L1I2 whole entry): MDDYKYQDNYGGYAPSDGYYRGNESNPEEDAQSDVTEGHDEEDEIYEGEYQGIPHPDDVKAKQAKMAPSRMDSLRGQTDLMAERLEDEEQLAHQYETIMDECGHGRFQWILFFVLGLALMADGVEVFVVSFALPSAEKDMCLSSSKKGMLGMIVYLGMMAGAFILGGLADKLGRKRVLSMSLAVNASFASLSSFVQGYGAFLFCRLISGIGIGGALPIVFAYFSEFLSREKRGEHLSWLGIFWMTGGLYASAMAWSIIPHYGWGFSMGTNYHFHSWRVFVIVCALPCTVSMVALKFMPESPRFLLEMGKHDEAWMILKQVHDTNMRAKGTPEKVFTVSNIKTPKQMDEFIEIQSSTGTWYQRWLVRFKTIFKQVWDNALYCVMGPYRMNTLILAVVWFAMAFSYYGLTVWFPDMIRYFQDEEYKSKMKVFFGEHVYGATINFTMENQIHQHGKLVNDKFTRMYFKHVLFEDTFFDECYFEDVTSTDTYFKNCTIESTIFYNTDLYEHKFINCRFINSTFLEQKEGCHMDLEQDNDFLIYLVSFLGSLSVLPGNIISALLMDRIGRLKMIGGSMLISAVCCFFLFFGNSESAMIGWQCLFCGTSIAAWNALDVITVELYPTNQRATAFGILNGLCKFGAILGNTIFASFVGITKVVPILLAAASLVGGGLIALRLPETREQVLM
T5 sequence (Q02563 whole entry): as the sequence (Q7L0J3 whole entry) above, with D53E, S62A, T71A, E144D, A154T, G440S, S482A, I572V, M634L counted along it
T2 sequence (Q02563 whole entry): as the sequence (Q7L0J3 whole entry) above, with D53E, S62A, T71A, E144D, A154T, G440S, S482A, I572V, M634L counted along it

## NC(=O)N1c2ccccc2C=Cc2ccccc21 [carbamazepine]
[1]
  displacement of LEV binding: do not displace LEV binding

## COc1ccc(C(=O)N2CCCC2=O)cc1 [aniracetam]
[1]
  displacement of LEV binding: displaced LEV binding

## C=CC(N)CCC(=O)O (centres unmarked) [vigabatrin]
[1]
  displacement of LEV binding: do not displace LEV binding

## CC[C@@H](C(N)=O)N1CCCC1=O [levetiracetam, (S)-α-ethyl-2-oxo-1-pyrrolidine acetamide]
LBS
  inhibition of [3H]ucb 30889 binding in brain sections: can be inhibited by levetiracetam at concentrations equivalent to those observed in in vitro binding
[2]
  specific binding in peripheral tissues: no specific binding
[3]
  suppression of seizures: unexpected potent ability of LEV to suppress seizures
[1]; radioligand [3H]LEV
  affinity for LBS: only micromolar affinity

## Cc1ccsc1C(=CCCN1CCC[C@@H](C(=O)O)C1)c1sccc1C [tiagabine]
[1]
  displacement of LEV binding: do not displace LEV binding

## CCCC(CCC)C(=O)O [valproate]
[1]
  displacement of LEV binding: do not displace LEV binding

## CCC1(C)CC(=O)NC1=O (centres unmarked) [ethosuximide]
[1]
  displacement of LEV binding: competed with LEV

## CC[C@@H](C(N)=O)N1CC(c2cccc(N=[N+]=[N-])c2)CC1=O (stereo partly drawn) [ucb 30889, (2S)-2-[4-(3-azidophenyl)-2-oxopyrrolidin-1-yl]butanamide]
COS-7
  binding to untransfected COS-7 cell line: no binding above background
[4]
  Bmax: 5054±704 fmol/mg protein
hSV2B
  binding to hSV2B: no binding above background
hSV2C
  binding to hSV2C: no binding above background
[5]
  specific binding in peripheral tissues: could not be detected
Soluble SV2A
  affinity for soluble SV2A compared with native membrane: equivalent to that exhibited by ligands to the native membrane

## NC(=O)OCC(COC(N)=O)c1ccccc1 [felbamate]
[1]
  displacement of LEV binding: do not displace LEV binding

## O=C1NC(=O)C(c2ccccc2)(c2ccccc2)N1 [phenytoin]
[1]
  displacement of LEV binding: do not displace LEV binding

## CC[C@@H](C(N)=O)N1CCCC1=O [ucb L060]
hSV2A
  affinity to hSV2A compared with LEV: significantly less affinity

## NS(=O)(=O)Cc1noc2ccccc12 [zonisamide]
[1]
  displacement of LEV binding: do not displace LEV binding

Reference: US7465549B2 (UCB, S.A., priority 2002, dated 2008)
